The assay relates to BRD. Kind of assay: BRD reducing activity with added metal ions and inhibitors. Format: biochemical, Micrococcus luteus IFO 13867.
The mark [1] stands for this setting: addition level 1 mM, activity without addition = 100%.
Setting [2] is: addition level 0.1 mM, activity without addition = 100%.
The mark [3] stands for this setting: addition level 0.01 mM, activity without addition = 100%.

Like-named read-outs stand apart in the source and are kept apart here.

The compound `c1cnc2c(c1)ccc1cccnc12` [1,10-Phenanthroline] registered a Relative activity under setting [1] of 90%.
For the setting “addition level 0.5 mM, activity without addition = 100%”, `O=C1NC(=O)C(c2ccccc2)(c2ccccc2)N1` [5,5-Diphenylhydantoin] registered a Relative activity of 99%.
The compound `[Cl-].[Cl-].[Co+2]` [CoCl2] showed a Relative activity of 99%.
With `O=S(=O)([O-])[O-].[Cu+2]` [CuSO4], the Relative activity turned out to be 6% under setting [2] and 5% under setting [1]. Besides, the “Inhibition of the enzyme” value (result in words) was “inhibited”.
Under setting [3], `O=C(O)c1cc(SSc2ccc([N+](=O)[O-])c(C(=O)O)c2)ccc1[N+](=O)[O-]` [DTNB] displayed a Relative activity of 93%.
For `O=C(O)CN(CCN(CC(=O)O)CC(=O)O)CC(=O)O` [EDTA], the Relative activity is listed as 88%.
On the same count and under the same terms, under `O=C(O)CI` [Iodoacetic acid] stands 89%.
For `O=S(=O)([O-])[O-].[Mg+2]` [MgSO4], the Relative activity under setting [1] was determined as 99%.
Still for that read-out and setting: under `[Cl][Mn][Cl]` [MnCl2] stands 89%; under `CCN1C(=O)C=CC1=O` [NEM], 94%.
Under setting [2], `O=C(O)c1cc[c]([Hg][Cl])cc1` [PCMB] gave a Relative activity of 78%.
`O=S(=O)(F)Cc1ccccc1` [PMSF, phenylmethylsulfonyl fluoride] came in with a Relative activity under setting [1] of 89%.
The compound `O=c1c(O)c(-c2ccc(O)c(O)c2)oc2cc(O)cc(O)c12` [Quercetin] yielded a Relative activity under setting [3] of 94%.
Regarding `O=S(=O)([O-])[O-].[Zn+2]` [ZnSO4], the Relative activity under setting [1] was determined as 99%.

The record behind these values is patent publication US7033808B2, “Carbonyl reductase, gene thereof and method of using the same” (Kaneka Corporation, priority 2000, dated 2006).
